Active and inactive are the calls of the source. No cut-off for these calls is given here.
Key:
Rattus norvegicus [1] = test: Analgesic activity in po dosed rat assessed as reduction of intraarterial bradykinin-induced pain response; format: functional
Mus musculus [2] = test: Analgesic activity in sc dosed Swiss-Webster mouse assessed as reduction of acetylcholine-induced writhing; format: functional; details: Mus musculus, Swiss-Webster, sc; for ED50: read-out: ED50
Rattus norvegicus [3] = test: Narcotic analgesic activity in fasted Sprague-Dawley rat at 480 mg/kg, po measured at 60 mins by D'Amour-Smith tail-flick test relative to control; format: functional
Rattus norvegicus [4] = test: Toxicity in Sprague-Dawley rat assessed as tremor at 480 mg/kg, po; format: organism-based; design: dose 480 mg/kg, route oral; details: in vivo
Rattus norvegicus [5] = test: Narcotic analgesic activity in fasted Sprague-Dawley rat at 240 mg/kg, po measured at 60 mins by D'Amour-Smith tail-flick test relative to control; format: functional
Rattus norvegicus [6] = test: Toxicity in Sprague-Dawley rat assessed as convulsion at 480 mg/kg, po; format: organism-based; design: dose 480 mg/kg, route oral; details: in vivo
Rattus norvegicus [7] = test: Hypoglycemic activity in Sprague-Dawley rat assessed as reduction of blood glucose level at 100 mg/kg, po by glucagon-impaired glucose disposal test relative to control; format: functional; design: scale not given: the % may be the effect or the level left
Rattus norvegicus [8] = test: Hypoglycemic activity in Sprague-Dawley rat assessed as reduction of blood glucose level at 78 mg/kg, po by glucagon-impaired glucose disposal test relative to control; format: functional; design: scale not given: the % may be the effect or the level left
Mus musculus [9] = test: Analgesic activity in Swiss-Webster mouse assessed as reduction of acetylcholine-induced writhing at 75 mg/kg, sc relative to control; format: functional; design: scale not given: the % may be the effect or the level left; details: route subcutaneous
Rattus norvegicus [10] = test: Narcotic analgesic activity in fasted Sprague-Dawley rat at 240 mg/kg, po measured at 15 mins by D'Amour-Smith tail-flick test relative to control; format: functional
Rattus norvegicus [11] = test: Hypoglycemic activity in Sprague-Dawley rat assessed as reduction of blood glucose level at 87 mg/kg, po by glucagon-impaired glucose disposal test relative to control; format: functional; design: scale not given: the % may be the effect or the level left
Rattus norvegicus [12] = test: Hypoglycemic activity in Sprague-Dawley rat assessed as reduction of blood glucose level at 87 mg/kg, po by glucagon-impaired glucose disposal test in presence of microsomal enzyme inhibitor SKF 525-A; format: functional, organism-based; design: dose 87 mg/kg
Rattus norvegicus [13] = test: Toxicity in Sprague-Dawley rat assessed as tremor at 120 mg/kg, po; format: organism-based; design: dose 120 mg/kg, route oral; details: in vivo
Rattus norvegicus [14] = test: Toxicity in Sprague-Dawley rat assessed as hyperexcitability at 120 mg/kg, po; format: organism-based; design: dose 120 mg/kg, route oral; details: in vivo
Rattus norvegicus [15] = test: Narcotic analgesic activity in fasted Sprague-Dawley rat at 120 mg/kg, po measured at 15 mins by D'Amour-Smith tail-flick test relative to control; format: functional
Rattus norvegicus [16] = test: Toxicity in Sprague-Dawley rat assessed as tremor at 240 mg/kg, sc; format: organism-based; design: dose 240 mg/kg, route subcutaneous; details: in vivo
Rattus norvegicus [17] = test: Toxicity in Sprague-Dawley rat assessed as convulsion at 240 mg/kg, sc; format: organism-based; design: dose 240 mg/kg, route subcutaneous; details: in vivo
Rattus norvegicus [18] = test: Analgesic activity in rat assessed as protection against intraarterial bradykinin-induced pain response at 50 mg/kg, sc relative to control; format: functional; details: route subcutaneous
Rattus norvegicus [19] = test: Narcotic analgesic activity in fed Sprague-Dawley rat at 240 mg/kg, sc measured at 30 mins by D'Amour-Smith tail-flick test; format: functional; details: route subcutaneous
Rattus norvegicus [20] = test: Hypoglycemic activity in Sprague-Dawley rat assessed as reduction of blood glucose level at 300 mg/kg, po by glucagon-impaired glucose disposal test relative to control; format: functional; design: scale not given: the % may be the effect or the level left
Rattus norvegicus [21] = test: Toxicity in Sprague-Dawley rat assessed as hyperexcitability at 240 mg/kg, po; format: organism-based; design: dose 240 mg/kg, route oral; details: in vivo
Mus musculus [22] = test: Toxicity in Swiss-Webster mouse assessed as stimulation of straub tail at 2.5 mg/kg, sc after 15 to 25 mins; format: organism-based; design: dose 2.5 mg/kg, route subcutaneous; details: in vivo
Rattus norvegicus [23] = test: Hypoglycemic activity in glucose loaded Sprague-Dawley rat assessed as reduction of blood glucose level at 88 mg/kg, po relative to control; format: functional; design: scale not given: the % may be the effect or the level left
Rattus norvegicus [24] = test: Hypoglycemic activity in glucose loaded Sprague-Dawley rat assessed as reduction of blood glucose level at 100 mg/kg, po relative to control; format: functional; design: scale not given: the % may be the effect or the level left
Rattus norvegicus [25] = organism: Rattus norvegicus; test: Narcotic analgesic activity in Sprague-Dawley rat measured at 15 mins by D'Amour-Smith tail-flick test relative to control; format: functional
Rattus norvegicus [26] = test: Toxicity in Sprague-Dawley rat assessed as jumpy behavior at 480 mg/kg, po; format: organism-based; design: dose 480 mg/kg, route oral; details: in vivo
Rattus norvegicus [27] = test: Toxicity in rat assessed as slight rigidity at 480 mg/kg, po; format: organism-based; design: dose 480 mg/kg, route oral; details: in vivo
Rattus norvegicus [28] = test: Toxicity in Sprague-Dawley rat assessed as stiff tail at 480 mg/kg, po; format: organism-based; design: dose 480 mg/kg, route oral; details: in vivo

**Q.** Which ED50 (Rattus norvegicus [1]) does the source give for `COC(=O)[C@H]1C[C@H]2CC[C@H]([C@H]1c1ccc[nH]1)N2C` here?
**A.** 8.5 mg/kg

**Q.** What about the ED50 (Mus musculus [2]) of the same compound?
**A.** 18 mg/kg

**Q.** And the Activity (Rattus norvegicus [3])?
**A.** 86%

**Q.** What about the Activity (Rattus norvegicus [4]) of the same compound?
**A.** Toxic

**Q.** What about the Activity (Rattus norvegicus [5]) of the same compound?
**A.** 19%

**Q.** What about the Activity (Rattus norvegicus [6]) of the same compound?
**A.** Toxic

**Q.** And the Activity (Rattus norvegicus [7])?
**A.** 30%

**Q.** With `CN1[C@@H]2CC[C@@H]1[C@@H](c1ccccc1)[C@@H](C(=O)O)C2` as the compound, how does the Activity (Rattus norvegicus [8]) read?
**A.** <20%

**Q.** And the Activity (Mus musculus [9])?
**A.** 7%

**Q.** What about the Activity (Rattus norvegicus [5]) of the same compound?
**A.** <20%

**Q.** And the Activity (Rattus norvegicus [10])?
**A.** <20%

**Q.** With `COC(=O)[C@H]1C[C@H]2CC[C@@H](N2)[C@H]1c1ccccc1.Cl` as the compound, how does the Activity (Rattus norvegicus [11]) read?
**A.** 31%

**Q.** What about the ED50 (Mus musculus [2]) of the same compound?
**A.** 4 mg/kg

**Q.** What about the Activity (Rattus norvegicus [12]) of the same compound?
**A.** Active

**Q.** What about the Activity (Rattus norvegicus [13]) of the same compound?
**A.** Toxic

**Q.** And the Activity (Rattus norvegicus [14])?
**A.** Toxic

**Q.** And the Activity (Rattus norvegicus [15])?
**A.** 69%

**Q.** `CC(=O)[C@H]1C[C@H]2CC[C@H]([C@H]1c1cccs1)N2C.Cl` was tested. Which Activity (Rattus norvegicus [16]) did it give?
**A.** Toxic

**Q.** And the Activity (Rattus norvegicus [11])?
**A.** 26%

**Q.** And the Activity (Rattus norvegicus [17])?
**A.** Toxic

**Q.** And the Activity (Rattus norvegicus [18])?
**A.** 80%

**Q.** What about the ED50 (Mus musculus [2]) of the same compound?
**A.** 12 mg/kg

**Q.** What about the Activity (Rattus norvegicus [19]) of the same compound?
**A.** 55%

**Q.** What does the source list for `COC(=O)[C@H]1C[C@H]2CC[C@H]([C@H]1c1ccsc1)N2C`?
**A.** ED40 (Mus musculus [2]): 12 mg/kg; Activity (Rattus norvegicus [20]): 42%; Activity (Rattus norvegicus [21]): Toxic; Activity (Rattus norvegicus [5]): 40%

**Q.** For `CCOC(=O)[C@H]1C[C@H]2CC[C@@H](N2)[C@H]1c1cccs1.Cl`, which ED50 (Mus musculus [2]) is on record?
**A.** 2.8 mg/kg

**Q.** And the Activity (Mus musculus [22])?
**A.** Toxic

**Q.** And the Activity (Rattus norvegicus [15])?
**A.** 85%

**Q.** What about the Activity (Rattus norvegicus [23]) of the same compound?
**A.** 66%

**Q.** How did the Activity (Mus musculus [9]) turn out when `CCC(CC)CN1[C@@H]2CC[C@@H]1[C@@H](c1cccs1)[C@@H](C(=O)OC)C2` was run?
**A.** 7%

**Q.** And the Activity (Rattus norvegicus [24])?
**A.** 69%

**Q.** What about the Activity (Rattus norvegicus [25]) of the same compound?
**A.** 24%

**Q.** And the Activity (Rattus norvegicus [10])?
**A.** 72%

**Q.** With `CCCCCCCN1[C@@H]2CC[C@@H]1[C@@H](c1cccs1)[C@@H](C(=O)OC)C2` as the compound, how does the Activity (Mus musculus [9]) read?
**A.** 27%

**Q.** What about the Activity (Rattus norvegicus [26]) of the same compound?
**A.** Toxic

**Q.** What about the Activity (Rattus norvegicus [27]) of the same compound?
**A.** Toxic

**Q.** What about the Activity (Rattus norvegicus [5]) of the same compound?
**A.** 70%

**Q.** And the Activity (Rattus norvegicus [28])?
**A.** Toxic

**Q.** What about the Activity (Rattus norvegicus [7]) of the same compound?
**A.** 40%

— ChEMBL document CHEMBL3272053, “(exo, exo)-2-Aryltropane-3-carboxylic esters, hypoglycemic agents with accompanying analgesic activity” (J Med Chem, 1978)
